One data set deals with T1, CYP19A1 (Aromatase) (Homo sapiens, UniProt P11511).
T1 construct: purchased BioVision K984-100
T1 sequence (P11511 1-503): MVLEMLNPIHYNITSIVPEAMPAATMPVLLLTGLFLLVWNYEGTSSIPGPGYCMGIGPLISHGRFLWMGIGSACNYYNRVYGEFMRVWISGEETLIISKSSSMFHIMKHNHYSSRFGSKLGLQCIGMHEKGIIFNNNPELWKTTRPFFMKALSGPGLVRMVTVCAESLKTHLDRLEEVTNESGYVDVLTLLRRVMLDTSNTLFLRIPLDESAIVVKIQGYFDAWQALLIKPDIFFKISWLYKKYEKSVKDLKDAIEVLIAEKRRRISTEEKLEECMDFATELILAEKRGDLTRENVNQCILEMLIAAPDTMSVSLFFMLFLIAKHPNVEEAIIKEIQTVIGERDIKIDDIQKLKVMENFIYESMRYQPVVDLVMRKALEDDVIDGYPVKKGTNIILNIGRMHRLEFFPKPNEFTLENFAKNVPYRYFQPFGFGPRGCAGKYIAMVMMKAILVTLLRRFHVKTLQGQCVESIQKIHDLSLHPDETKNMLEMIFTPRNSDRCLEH
The data set is described as follows: Aromatase (CYP19A1) Inhibitor Screening Kit, recombinant enzyme. Type of data set: biochemical. The method, then: The in vitro tests on Aromatase were performed by using the Kit Cat# K984-100 assay kit; the Regeneration System, 100× and NADP^+: (100×), 10 mM were used as reaction buffer. In particular, the enzyme was first prepared with the Regeneration System and substrate with NADP^+ in freshly prepared reaction buffer. Then, the resulting solution was delivered into the reaction well.

Data set [1] has as its target CYP11B1 (11β-Hydroxylase). As to conditions: cited from earlier work.
Data set [2] concerns CYP11B2 (Aldosterone Synthase). As to conditions: cited from earlier work.
Another data set relates to MCF-7 cells. The data set is described as follows: Cell proliferation assay (trypan blue cell count). The note with it: read-out: antiproliferative IC50. Type of data set: cell-based, human. The method, then: MCF-7 and MDA-MB-231 cells were plated in 24-well plates and allowed to attach overnight. […] At the end of the treatment, viable cells (evaluated by trypan blue dye exclusion) were counted with a hemocytometer.

Like-named read-outs stand apart in the source and are kept apart here.

The source of these data is article PMC10714424, “Discovery of a Potent Dual Inhibitor of Aromatase and Aldosterone Synthase” (ACS Pharmacology & Translational Science, 2023).

What is called melting point is the temperature of the solid-liquid transition. As a reminder, the IC50 is the concentration at which inhibition is half-maximal.

For `OCc1cnc(S)n1Cc1ccc(Cl)cc1Cl` [X1], the “inhibition of CYP19A1” value at CYP19A1 (Aromatase) is recorded as “no inhibition”.
In the case of `O=[N+]([O-])c1cc(C(F)(F)F)ccc1Sc1ncc(CO)n1Cc1ccccc1` [X12, (1-Benzyl-2-((2-nitro-4-(trifluoromethyl)phenyl)thio)-1H-imidazol-5-yl)methanol], the melting point fell in the range of 225.4 to 226.9 °C.
Turning to `N#Cc1ccc(C(c2ccc(C#N)cc2)n2cncn2)cc1` [letrozole], the IC50 in data set [1] was 2620 nM; in data set [2] it was 1420 nM; in the data set with MCF-7 cells (Homo sapiens, MCF7, 24 h, MCF-7, 24 h), 764 ± 114 nM; in the data set on MCF-7 cells (Homo sapiens, MCF7, 48 h, MCF-7, 48 h), 599 ± 333 nM; with MCF-7 cells (Homo sapiens, MCF7, 72 h, MCF-7, 72 h), 121 ± 30 nM; in the data set on MCF-7 cells (MCF-7, 72 h), 120 ± 30 nM.
